Reference: ChEMBL document CHEMBL4765323, “Design, synthesis, and biological evaluation of novel miconazole analogues containing selenium as potent antifungal agents” (Eur J Med Chem, 2020)
Converted amounts (≈) assume the structure as drawn. The source made the active and inactive calls. No cut-off for these calls is given here.

What was measured:
Candida albicans [1] = assay: Antifungal activity against Candida albicans CPCC400616 measured after 24 hrs by micro-broth dilution assay; assay type: functional
Candida albicans [2] = assay: Antifungal activity against Candida albicans ATCC SC5314 measured after 24 hrs by micro-broth dilution assay; assay type: functional
[Candida] zeylanoides = Antifungal activity against Candida zeylanoides CMGCC2.3739 measured after 24 hrs by micro-broth dilution assay; assay type: functional; details: Dujonia zeylanoides
Cryptococcus neoformans = assay: Antifungal activity against Cryptococcus neoformans CGMCC2.3161 measured after 72 hrs by micro-broth dilution assay; assay type: functional
Pichia kudriavzevii = assay: Antifungal activity against Candida krusei AS 2.1045 measured after 24 hrs by micro-broth dilution assay; assay type: functional
Nakaseomyces glabratus = assay: Antifungal activity against clinical isolate Candida glabrata measured after 24 hrs by micro-broth dilution assay; assay type: functional
Candida parapsilosis = assay: Antifungal activity against Candida parapsilosis ATCC 22019 measured after 24 hrs by micro-broth dilution assay; assay type: functional; details: Lodderomyces parapsilosis
Aspergillus fumigatus = assay: Antifungal activity against Aspergillus fumigatus CGMCC 3.7795 measured after 72 hrs by micro-broth dilution assay; assay type: functional
Candida albicans [3] = assay: Antifungal activity against fluconazole-resistant Candida albicans CaR measured after 24 hrs by micro-broth dilution assay; assay type: functional
Candida albicans [4] = assay: Antifungal activity against fluconazole-resistant Candida albicans 17 measured after 24 hrs by micro-broth dilution assay; assay type: functional
Candida albicans [5] = assay: Antifungal activity against fluconazole-resistant Candida albicans 632 measured after 24 hrs by micro-broth dilution assay; assay type: functional
Candida albicans [6] = assay: Antifungal activity against Candida albicans 901 measured after 24 hrs by micro-broth dilution assay; assay type: functional
Candida albicans [7] = assay: Antifungal activity against fluconazole-resistant Candida albicans strain 904 measured after 24 hrs by micro-broth dilution assay; assay type: functional
Candida albicans [8] = assay: Fungicidal activity against Candida albicans CPCC400616 measured after 48 hrs; assay type: functional
[9] = Ratio of MFC for fungicidal activity against Candida albicans CPCC400616 to MIC for Antifungal activity against Candida albicans CPCC400616; assay type: functional; details: time 24 hrs
Candida albicans [10] = assay: Inhibition of CYP51 in azole-resistant Candida albicans ATCC […] assessed as ergosterol level at 0.03125 ug/ml incubated for 16 hrs by LC-MS analysis relative to control; set-up: scale not given: the % may be the effect or the level left; details: dose 0.03125 µg/ml
Candida albicans [11] = assay: Inhibition of CYP51 in azole-resistant Candida albicans ATCC […] assessed as ergosterol level at 0.125 ug/ml incubated for 16 hrs by LC-MS analysis relative to control; set-up: scale not given: the % may be the effect or the level left; details: dose 0.125 µg/ml
Candida albicans [12] = assay: Inhibition of CYP51 in azole-resistant Candida albicans ATCC […] assessed as ergosterol level at 0.5 ug/ml incubated for 16 hrs by LC-MS analysis relative to control; set-up: scale not given: the % may be the effect or the level left; details: dose 0.5 µg/ml
Candida albicans [13] = assay: Inhibition of CYP51 in azole-resistant Candida albicans ATCC […] assessed as ergosterol level at 2 ug/ml incubated for 16 hrs by LC-MS analysis relative to control; set-up: scale not given: the % may be the effect or the level left; details: dose 2.0 µg/ml
Candida albicans [14] = assay: Antibiofilm activity against FCZ-Resistant Candida albicans CPCC400616 assessed as sessile minimum inhibitory concentration of biofilm formation at 50% after 1.5 hrs by XTT assay; assay type: functional
Candida albicans [15] = assay: Antibiofilm activity against FCZ-Resistant Candida albicans CPCC400616 assessed as sessile minimum inhibitory concentration of biofilm formation at 50% after 3 hrs by XTT assay; assay type: functional
Candida albicans [16] = assay: Antibiofilm activity against FCZ-Resistant Candida albicans CPCC400616 assessed as sessile minimum inhibitory concentration of biofilm formation at 50% after 6 hrs by XTT assay; assay type: functional
Candida albicans [17] = assay: Antibiofilm activity against FCZ-Resistant Candida albicans CPCC400616 assessed as sessile minimum inhibitory concentration of biofilm formation at 50% after 24 hrs by XTT assay; assay type: functional
Erythrocyte = assay: Hemolytic activity in rabbit RBC assessed as hemolysis ratio at 1 ug/ml measured after 3 hrs relative to control; assay type: ADME, cell-based, Oryctolagus cuniculus; details: dose 1 µg/ml
Candida albicans [18] = assay: Antibiofilm activity against FCZ-Resistant Candida albicans CPCC400616 assessed as sessile minimum inhibitory concentration of biofilm formation at 80% after 1.5 hrs by XTT assay; assay type: functional
Candida albicans [19] = assay: Antibiofilm activity against FCZ-Resistant Candida albicans CPCC400616 assessed as sessile minimum inhibitory concentration of biofilm formation at 80% after 3 hrs by XTT assay; assay type: functional
Candida albicans [20] = assay: Antibiofilm activity against FCZ-Resistant Candida albicans CPCC400616 assessed as sessile minimum inhibitory concentration of biofilm formation at 80% after 6 hrs by XTT assay; assay type: functional
Candida albicans [21] = assay: Antibiofilm activity against FCZ-Resistant Candida albicans CPCC400616 assessed as sessile minimum inhibitory concentration of biofilm formation at 80% after 24 hrs by XTT assay; assay type: functional
[22] = Ratio of hemolysis activity in rabbit RBC to MIC for Candida albicans; assay type: toxicity; details: rabbit red blood cells (RBC)
Candida albicans [23] = assay: Inhibition of CYP51 in azole-resistant Candida albicans ATCC […] assessed as Obtusifoliol level at 0.03125 ug/ml incubated for 16 hrs by LC-MS analysis relative to control; set-up: scale not given: the % may be the effect or the level left; details: dose 0.03125 µg/ml
Candida albicans [24] = assay: Inhibition of CYP51 in azole-resistant Candida albicans ATCC […] assessed as Obtusifoliol level at 0.125 ug/ml incubated for 16 hrs by LC-MS analysis relative to control; set-up: scale not given: the % may be the effect or the level left; details: dose 0.125 µg/ml
Candida albicans [25] = assay: Inhibition of CYP51 in azole-resistant Candida albicans ATCC […] assessed as Obtusifoliol level at 0.5 ug/ml incubated for 16 hrs by LC-MS analysis relative to control; set-up: scale not given: the % may be the effect or the level left; details: dose 0.5 µg/ml
Candida albicans [26] = assay: Inhibition of CYP51 in azole-resistant Candida albicans ATCC […] assessed as Obtusifoliol level at 2 ug/ml incubated for 16 hrs by LC-MS analysis relative to control; set-up: scale not given: the % may be the effect or the level left; details: dose 2.0 µg/ml
Candida albicans [27] = assay: Inhibition of CYP51 in azole-resistant Candida albicans ATCC […] assessed as Obtusifoliol level at 8 ug/ml incubated for 16 hrs by LC-MS analysis relative to control; set-up: scale not given: the % may be the effect or the level left; details: dose 8.0 µg/ml
Candida albicans [28] = assay: Inhibition of CYP51 in azole-resistant Candida albicans ATCC […] assessed as Lanosterol level at 0.03125 ug/ml incubated for 16 hrs by LC-MS analysis relative to control; set-up: scale not given: the % may be the effect or the level left; details: dose 0.03125 µg/ml
Candida albicans [29] = assay: Inhibition of CYP51 in azole-resistant Candida albicans ATCC […] assessed as Lanosterol level at 0.125 ug/ml incubated for 16 hrs by LC-MS analysis relative to control; set-up: scale not given: the % may be the effect or the level left; details: dose 0.125 µg/ml
Candida albicans [30] = assay: Inhibition of CYP51 in azole-resistant Candida albicans ATCC […] assessed as Lanosterol level at 0.5 ug/ml incubated for 16 hrs by LC-MS analysis relative to control; set-up: scale not given: the % may be the effect or the level left; details: dose 0.5 µg/ml
Candida albicans [31] = assay: Inhibition of CYP51 in azole-resistant Candida albicans ATCC […] assessed as Lanosterol level at 2 ug/ml incubated for 16 hrs by LC-MS analysis relative to control; set-up: scale not given: the % may be the effect or the level left; details: dose 2.0 µg/ml
Candida albicans [32] = assay: Inhibition of CYP51 in azole-resistant Candida albicans ATCC […] assessed as Lanosterol level at 8 ug/ml incubated for 16 hrs by LC-MS analysis relative to control; set-up: scale not given: the % may be the effect or the level left; details: dose 8.0 µg/ml
Candida albicans [33] = assay: Inhibition of CYP51 in azole-resistant Candida albicans ATCC […] assessed as Eburicol level at 0.03125 ug/ml incubated for 16 hrs by LC-MS analysis relative to control; set-up: scale not given: the % may be the effect or the level left; details: dose 0.03125 µg/ml
Candida albicans [34] = assay: Inhibition of CYP51 in azole-resistant Candida albicans ATCC […] assessed as Eburicol level at 0.125 ug/ml incubated for 16 hrs by LC-MS analysis relative to control; set-up: scale not given: the % may be the effect or the level left; details: dose 0.125 µg/ml
Candida albicans [35] = assay: Inhibition of CYP51 in azole-resistant Candida albicans ATCC […] assessed as Eburicol level at 0.5 ug/ml incubated for 16 hrs by LC-MS analysis relative to control; set-up: scale not given: the % may be the effect or the level left; details: dose 0.5 µg/ml
Candida albicans [36] = assay: Inhibition of CYP51 in azole-resistant Candida albicans ATCC […] assessed as Eburicol level at 2 ug/ml incubated for 16 hrs by LC-MS analysis relative to control; set-up: scale not given: the % may be the effect or the level left; details: dose 2.0 µg/ml
Candida albicans [37] = assay: Inhibition of CYP51 in azole-resistant Candida albicans ATCC […] assessed as Eburicol level at 8 ug/ml incubated for 16 hrs by LC-MS analysis relative to control; set-up: scale not given: the % may be the effect or the level left; details: dose 8.0 µg/ml
Candida albicans [38] = assay: Inhibition of CYP51 in azole-resistant Candida albicans ATCC […] assessed as inhibition of ergosterol biosynthesis by measuring ergosterol content at 8 ug/ml incubated for 16 hrs by LC-MS analysis relative to control; set-up: scale not given: the % may be the effect or the level left; details: dose 8.0 µg/ml
Candida albicans [39] = assay: Fungicidal activity against Candida albicans CPCC400616 at MIC to 8 times MIC measured after 24 hrs by time-kill curve assay; assay type: functional
Candida albicans [40] = assay: Fungicidal activity against Candida albicans CPCC400616 at 8 times MIC measured after 4 hrs by time-kill curve assay; assay type: functional, organism-based

Compound `Clc1ccc(C(Cn2ccnc2)[Se]Cc2ccccc2Cl)c(Cl)c1` (configuration not stated) has an MIC (Candida albicans [1]) of 0.02 µg/mL (≈ 0.045 µM), an MIC (Candida albicans [2]) of 0.01 µg/mL (≈ 0.0225 µM) and an MIC ([Candida] zeylanoides) of 1 µg/mL (≈ 2.25 µM). For the same compound, the MIC (Cryptococcus neoformans) was 0.25 µg/mL (≈ 0.562 µM), the MIC (Pichia kudriavzevii) was 0.13 µg/mL (≈ 0.292 µM) and the MIC (Nakaseomyces glabratus) was 0.5 µg/mL (≈ 1.12 µM). It also gave an MIC (Candida parapsilosis) of 0.13 µg/mL (≈ 0.292 µM), an MIC (Aspergillus fumigatus) of 2 µg/mL (≈ 4.5 µM) and an MIC (Candida albicans [3]) of 0.06 µg/mL (≈ 0.135 µM). It also gave an MIC (Candida albicans [4]) of 0.13 µg/mL (≈ 0.292 µM), an MIC (Candida albicans [5]) of 1 µg/mL (≈ 2.25 µM) and an MIC (Candida albicans [6]) of 0.5 µg/mL (≈ 1.12 µM). It also gave an MIC (Candida albicans [7]) of 0.25 µg/mL (≈ 0.562 µM), an MIC (Candida albicans [8]) of 0.125 µg/mL (≈ 0.281 µM) and an MFC/MIC ratio [9] of 8. For the same compound, the Activity (Candida albicans [10]) was 86.4%, the Activity (Candida albicans [11]) was 80.3% and the Activity (Candida albicans [12]) was 78.9%. For the same compound, the Activity (Candida albicans [13]) was 19.8%, the Activity (Candida albicans [14]) was 4 µg/mL and the Activity (Candida albicans [15]) was 16 µg/mL. For the same compound, the Activity (Candida albicans [16]) was 128 µg/mL, the Activity (Candida albicans [17]) was >128 µg/mL and the Activity (Erythrocyte) was 0 µg/mL. The Activity (Candida albicans [18]) was 8 µg/mL, the Activity (Candida albicans [19]) was 64 µg/mL and the Activity (Candida albicans [20]) was >128 µg/mL. For the same compound, the Activity (Candida albicans [21]) was >128 µg/mL, the selectivity ratio [22] was 256 and the Activity (Candida albicans [23]) was 1%. For the same compound, the Activity (Candida albicans [24]) was 9.5%, the Activity (Candida albicans [25]) was 17.4% and the Activity (Candida albicans [26]) was 7.8%. For the same compound, the Activity (Candida albicans [27]) was 8.1%, the Activity (Candida albicans [28]) was 0% and the Activity (Candida albicans [29]) was 11.6%. It also gave an Activity (Candida albicans [30]) of 10%, an Activity (Candida albicans [31]) of 13.6% and an Activity (Candida albicans [32]) of 12.4%. It also gave an Activity (Candida albicans [33]) of 7.4%, an Activity (Candida albicans [34]) of 5.3% and an Activity (Candida albicans [35]) of 70.3%. It also gave an Activity (Candida albicans [36]) of 75.1%, an Activity (Candida albicans [37]) of 64.6% and an Activity (Candida albicans [38]) of 77.7%. For the same compound, the Activity (Candida albicans [39]) was >3 log10CFU/ml and the Activity (Candida albicans [40]) was “Active”.
